Tests used:
NLRP3 = molecular target: T1, NLRP3 (Homo sapiens, UniProt Q96P20); experiment: IC50 experiment for the detection of NLRP3 antagonist using THP-1 cells (IL-1β secretion, PMA/LPS/ATP); type: cell-based
T1 construct: endogenous in cells
Source text: The chemical names and structural formulas of the compounds of the present disclosure for experimental use are shown in the preparation embodiments for each compound. • 1. Experimental principle: In this experiment, the human monocytic cell line THP1 was used to study the inhibitory activity (IC50) of NLRP3 antagonists on the secretion of IL-1β. The monocytic cell line THP1 was differentiated into mature macrophages using PMA (phorbol 12-myristate 13-acetate), and then the cells were stimulated using LPS (lipopolysaccharide), an agonist of Toll-like receptor TLR4, to activate the transcriptional activity of inflammasome NLRP3 and the expression of IL-1β precursor pro-IL-1β. At this time, the NLRP3 antagonist was added, and then ATP was added to further mature and activate NLRP3, and activate downstream caspase-1. Pro-IL-1β could be enzyme-cleaved by the activated caspase-1 to mature IL-1β that could be secreted.

[1] = Pharmacokinetic evaluation of compounds in mice; type: in vivo; details: C57BL/6J mice
Protocol: Experimental Objective: To Test the Pharmacokinetics of Compounds in Mice
Experimental Materials: C57BL/6J Mice (Male, 6-8 Weeks Old)
Experimental operation: The clear solution obtained after the test compound was dissolved was administered to […] C57BL/6J mice (overnight fasting, 6-8 weeks old) via tail intravenous injection and intragastric administration (vehicle: 10% DMSO/10% solutol/80% water). After administration of test compound or control compound, blood was collected from the mandibular vein and centrifuged to obtain plasma at 0.0833, 0.25, 0.5, 1, 2, 4, 8 and 24 h for the intravenous injection group (IV) and at 0.25, 0.5, 1, 2, 4, 6, 8 and 24 h for the intragastric administration group (PO). The plasma concentration was determined by LC-MS/MS, and relevant pharmacokinetic parameters were calculated by the non-compartmental model linear logarithmic trapezoidal method using pharmacokinetic software WinNonlin™ Version 6.3. Meaning of each parameter: T1/2: half-life; Cmax: peak concentration; AUC0-inf: area under the plasma concentration-time curve from time 0 extrapolated to infinite time; F: bioavailability, Vd: apparent volume of distribution, Cl: clearance rate, Tmax: time to peak.

[2] = system: MSU-induced Air Pouch acute gout model; experiment: MSU-induced Air Pouch acute gout model, IL-6 and IL-1β in APLV; type: in vivo, C57BL/6 mice; details: for level of IL-1β in APLV after treatment / level of IL-6 in APLV after treatment: MCC950 50 mg/kg po, 7a 50, 15, 5 mg/kg po, dexamethasone 10 mg/kg ip, MSU 3 mg
Protocol: Experimental Embodiment 3: Evaluation of the Therapeutic Effect of the Compound on the MSU-Induced Air Pouch Acute Gout Model in C57BL/6 Mice
Air Pouch of mouse is a cystic space similar to the human synovial membrane, and the injection of monosodium urate crystals (MSU) into the air pouch will cause an acute inflammatory response similar to human gout. The inflammatory cytokines IL-6 and IL-1β in the Air Pouch Lavage Fluid flushing fluid (APLV) were analyzed, and MCC950 was used as a control compound, and the efficacy of the compound of the present disclosure on the MSU-induced air pouch gout model in male C57BL/6 mice was tested.
On the seventh day, the drug was administered first, and the MSU crystal solution was injected into the air pouch after 1 hour, and the Air Pouch Lavage Fluid (APLV) was collected after 7 hours and analyzed.
1 g of uric acid was dissolved in 0.2 L of boiling water containing 6 mL of 1 N sodium hydroxide; after the pH was adjusted to 7.4, the solution was gradually cooled at room temperature and then left overnight at 4° C. MSU crystals were recovered by centrifugation and evaporated to dryness, dispensed into individual vials (3 mg), and sterilized by autoclaving.
Healthy C57BL/6 mice were numbered and grouped in the experiment, and 5 mL of sterile air was subcutaneously injected into the back of the mice on the same day of grouping (Day 1) and on the fourth day (Day 4) to generate an air pouch. On the seventh day (Day 7), each group of mice was given vehicle or test sample, and after 1 hour the suspension of MSU crystals (saline, 3 mg/mL) was injected into the air pouch. Air Pouch Lavage Fluid (APLV) would be collected after 6 hours, and ELISA kits would be used to test the levels of IL-6 and IL-1β in APLV. Results were expressed as average value±SEM. Statistical analysis was performed by a method of analysis of variance (ANOVA), followed by Dunnett test, and differences were considered significant when p<0.05.

type II diabete model = details: mice; cited from earlier work
[3] = system: cryopyrin-associated auto-inflammatory syndrome (cAPS) model; details: mice; cited from earlier work
NLRP3 inflammasome = NLRP3 inflammasome (Homo sapiens, UniProt Q96P20); details: cited from earlier work
[4] = system: experimental autoimmune encephalomyelitis (EAE); details: mice; cited from earlier work
[5] = at the dose of 15 mg/kg and 50 mg/kg po

T1 sequence (Q96P20 whole entry): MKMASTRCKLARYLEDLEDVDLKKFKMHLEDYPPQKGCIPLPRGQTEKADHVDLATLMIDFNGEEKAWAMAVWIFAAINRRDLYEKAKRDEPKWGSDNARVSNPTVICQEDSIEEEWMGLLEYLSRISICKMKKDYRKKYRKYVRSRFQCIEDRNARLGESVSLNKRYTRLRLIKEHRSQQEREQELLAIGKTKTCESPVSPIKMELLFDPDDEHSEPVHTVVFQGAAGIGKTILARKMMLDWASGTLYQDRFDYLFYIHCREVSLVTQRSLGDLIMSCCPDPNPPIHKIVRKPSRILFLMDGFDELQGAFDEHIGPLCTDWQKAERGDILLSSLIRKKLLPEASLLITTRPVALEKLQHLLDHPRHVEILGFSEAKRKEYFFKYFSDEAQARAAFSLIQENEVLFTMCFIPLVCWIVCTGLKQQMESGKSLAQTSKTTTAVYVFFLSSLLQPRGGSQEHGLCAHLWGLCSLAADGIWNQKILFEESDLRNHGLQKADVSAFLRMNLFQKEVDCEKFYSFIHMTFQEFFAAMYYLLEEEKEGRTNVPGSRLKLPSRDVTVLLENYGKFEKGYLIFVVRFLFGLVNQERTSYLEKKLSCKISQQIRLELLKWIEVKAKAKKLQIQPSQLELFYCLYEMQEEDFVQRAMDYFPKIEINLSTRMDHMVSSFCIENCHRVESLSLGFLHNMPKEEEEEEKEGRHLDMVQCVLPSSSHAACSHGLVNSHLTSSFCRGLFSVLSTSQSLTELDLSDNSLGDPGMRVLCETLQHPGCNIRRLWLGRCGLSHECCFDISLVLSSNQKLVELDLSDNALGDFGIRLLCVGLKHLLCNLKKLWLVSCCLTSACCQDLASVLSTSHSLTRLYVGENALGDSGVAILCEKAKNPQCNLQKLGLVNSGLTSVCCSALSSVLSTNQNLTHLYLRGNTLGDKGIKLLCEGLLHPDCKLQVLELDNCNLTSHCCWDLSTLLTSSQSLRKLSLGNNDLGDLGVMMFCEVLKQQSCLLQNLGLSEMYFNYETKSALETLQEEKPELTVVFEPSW
NLRP3 inflammasome, sequence (Q96P20 whole entry): as above

CS(C)(=O)=Nc1ccc(S(=N)(=O)NC(=O)Nc2c3c(cc4c2CCC4)CCC3)s1 (single isomer, unassigned) [Compound 4a]
IC50 (NLRP3): 33.9 nM

COc1cc(-c2ccc3c(c2NC(=O)NS(=N)(=O)c2ccc(N=S(C)(C)=O)s2)CCC3)ccn1 (single isomer, unassigned) [Compound 5a]
IC50 (NLRP3): 7.4 nM

CS(C)(=O)=Nc1cnc(S(=N)(=O)NC(=O)Nc2c3c(cc4c2CCC4)CCC3)s1 (single isomer, unassigned) [Compound 7a]
F ([1]; PO 20 mg/kg vs IV 3 mg/kg): 67.6% | AUC(0-inf) ([1]; mouse, plasma, IV 3 mg/kg): 65.7 µM·h | Vd ([1]; mouse, plasma, IV 3 mg/kg): 0.25 L/kg | clearance ([1]; mouse, plasma, IV 3 mg/kg): 1.68 mL/min/kg | half-life ([1]; mouse, plasma, IV 3 mg/kg): 2.1 h | AUC(0-inf) ([1]; mouse, plasma, PO 20 mg/kg): 296 µM·h | Cmax ([1]; mouse, plasma, PO 20 mg/kg): 102 µM | Tmax ([1]; mouse, plasma, PO 20 mg/kg): 0.5 h | level of IL-1β in APLV after treatment [2]: decreased rapidly | level of IL-6 in APLV after treatment [2]: decreased rapidly | reducing IL-6 in APLV compared with dexamethasone (10 mg/kg dose) ([2]; at high, medium and low doses (50, 15, 5 mg/kg po)): better than dexamethasone | reducing IL-1β in APLV compared with MCC950 (50 mg/kg dose) [2, 5]: significantly better than that of MCC950 | reducing IL-1β in APLV compared with dexamethasone (10 mg/kg) [2, 5]: reaching the same effect as dexamethasone | reducing IL-6 in APLV compared with MCC950 (50 mg/kg dose) [2, 5]: better than MCC950 | effect on reducing IL-1β in APLV ([2]; po, MSU-induced air pouch): significant effect | IC50 (NLRP3): 9.8 nM

O=C(O)c1ccc(/C=C2\SC(=O)N(Cc3cccc(C(F)(F)F)c3)C2=O)cc1 [CY-09]
therapeutic effect on type II diabete model (type II diabete model): significant therapeutic effects | therapeutic effect on cAPS model [3]: significant therapeutic effects | assembly and activation of NLRP3 inflammasome (NLRP3 inflammasome): specifically blocks

COc1cc(-c2cccc(C(C)C)c2NC(=O)NS(=O)(=O)c2ccc(N=S(C)(C)=O)s2)ccn1 [Compound 2]
IC50 (NLRP3): 40 nM

COc1cc(-c2ccc3c(c2NC(=O)NS(=O)(=O)c2ccc(N=S(C)(C)=O)s2)CCC3)ccn1 [Compound 3]
IC50 (NLRP3): 10 nM

CS(C)(=O)=Nc1ccc(S(=N)(=O)NC(=O)Nc2c(-c3ccnc(C#N)c3)ccc3c2CCC3)s1 (stereo not drawn) [Compound 8]
IC50 (NLRP3): 27.8 nM

CC(C)(O)c1coc(S(=O)(=O)NC(=O)Nc2c3c(cc4c2CCC4)CCC3)c1 [MCC950, reference compound]
level of IL-1β in APLV after treatment [2]: decreased rapidly | level of IL-6 in APLV after treatment [2]: decreased rapidly | severity of experimental autoimmune encephalomyelitis (EAE) [4]: reduce the severity
